Measured values as given in PMC4467461, “Small-molecule activation of SERCA2a SUMOylation for the treatment of heart failure” (Nature Communications, 2015).

Biological target: T1, Recombinant human SUMO-specific E1 (Homo sapiens, UniProt Q9UBT2)
T1 construct: purchased R&D Systems
Test: SUMO E1 ATP hydrolysis, fluorogenic pyrophosphate assay
Format: biochemical
Settings: E1 0.05 μM, Ubc9 0.25 μM, SUMO-1 12.5 μM, ATP 1 mM, 30 min at 37 °C; read-out: ATP-dependent activation of SUMO E1, EC50
Method: Figure 3 SUMO-specific activating enzyme, E1, is a direct target of N106. Mechanism of action of N106 on individual steps in the SUMOylation cascade in vitro. (a) Inorganic pyrophosphate resulting from ATP hydrolysis in E1-catalysed SUMO-1 activation in the presence of increasing concentration of N106 compound was assessed by fluorogenic pyrophosphate assay kit. Recombinant human SUMO-specific E1 (0.05 μM), human Ubc9 (0.25 μM), human SUMO-1 (12.5 μM) and ATP (1 mM) were incubated with increasing concentration of N106 for 30 min at 37 °C and quantified using a fluorescence microplate reader. (b) The SAE2-SUMO-1 conjugation was detected followed by western blotting with anti-SAE2 antibodies. […] (e) ATP hydrolytic activity of WT and mutant SUMO E1 are determined. (f) The E1-SUMO-1 conjugation was detected followed by western blot analysis with anti-SAE2 antibody. *The SAE2-SUMO-1 conjugated bands. […]
Biochemical activity of SUMO-specific E1 enzymes was examined by ATPase assay and in-vitro gel-shifting assays. ATP hydrolysis activity of E1 enzymes was measured by using pyrophosphate assay kit (Abcam Inc.). […] The E1-thioester formation was analysed in reaction mixtures containing 0.05 μM E1, 12.5 μM SUMO-1 and 1 mM ATP with N106 or DMSO. The E1-dependent E2-SUMO-1 thioester formation was assessed using reaction containing 0.05 μM E1, 0.25 μM E2, 12.5 μM SUMO-1 and 1 mM ATP with N106 or DMSO. […]

T1 sequence (Q9UBE0 whole entry): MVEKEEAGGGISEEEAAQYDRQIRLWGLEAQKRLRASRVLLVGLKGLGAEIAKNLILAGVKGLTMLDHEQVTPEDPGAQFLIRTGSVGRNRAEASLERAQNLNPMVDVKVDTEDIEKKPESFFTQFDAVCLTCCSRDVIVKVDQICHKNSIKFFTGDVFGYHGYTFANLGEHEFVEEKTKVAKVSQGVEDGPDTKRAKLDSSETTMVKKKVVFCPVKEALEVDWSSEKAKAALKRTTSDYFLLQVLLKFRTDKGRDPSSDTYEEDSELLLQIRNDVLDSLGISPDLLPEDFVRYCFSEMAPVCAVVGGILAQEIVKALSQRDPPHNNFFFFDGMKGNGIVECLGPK
T1 sequence (Q9UBT2 whole entry): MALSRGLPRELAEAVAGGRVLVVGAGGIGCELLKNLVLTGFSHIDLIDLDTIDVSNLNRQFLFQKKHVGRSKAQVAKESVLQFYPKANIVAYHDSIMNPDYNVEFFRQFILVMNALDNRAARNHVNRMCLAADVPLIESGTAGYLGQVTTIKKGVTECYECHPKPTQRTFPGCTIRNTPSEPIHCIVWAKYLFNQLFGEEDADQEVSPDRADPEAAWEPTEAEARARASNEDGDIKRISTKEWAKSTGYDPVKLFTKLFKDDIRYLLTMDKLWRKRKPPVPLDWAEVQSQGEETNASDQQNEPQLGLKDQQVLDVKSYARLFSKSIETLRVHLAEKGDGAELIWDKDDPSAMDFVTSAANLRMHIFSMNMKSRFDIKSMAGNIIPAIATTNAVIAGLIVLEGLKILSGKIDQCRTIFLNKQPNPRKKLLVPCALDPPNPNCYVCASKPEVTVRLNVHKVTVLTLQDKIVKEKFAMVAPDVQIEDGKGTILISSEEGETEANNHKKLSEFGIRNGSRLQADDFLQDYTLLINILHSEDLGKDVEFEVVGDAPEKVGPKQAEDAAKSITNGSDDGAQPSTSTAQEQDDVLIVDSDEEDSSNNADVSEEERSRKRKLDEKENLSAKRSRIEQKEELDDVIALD

EC50: 2.45 ± 0.13 µM
Compound: COc1ccc(-c2nnc(Nc3nc4c(OC)cccc4s3)o2)cc1 [Compound N106, N-(4-methoxybenzo[d]thiazol-2-yl)-5-(4-methoxyphenyl)-1,3,4-oxadiazol-2-amine]
